What was measured:
[1] = system: AQP2 localization and F-actin in primary IMCD cells; test: Immunofluorescence microscopy of AQP2 and F-actin in primary IMCD cells; type: cell-based, rat
Description: Primary rat renal inner medullary collecting duct (IMCD) cells were obtained and cultured as previously described. AQP2 was detected with specific rabbit (H27 antibody) and secondary Cy3-coupled antibodies, and F-actin was visualized with Alexa Fluor 647-Phalloidin by laser scanning microscopy (LSM780; Zeiss Jena, Germany) as described.
Fig 8 Scaff10-8 promotes the redistribution of AQP2 to the plasma membrane of primary IMCD cells, which is independent of cAMP elevation and associated with depolymerization of F-actin. (A) Upper panel. IMCD cells were treated with DMSO (1%; control), the solvent of Scaff10-8, or forskolin (10 μM, 30 min) to stimulate cAMP synthesis. Lower panels: The cells were treated for 1 hour with Scaff10-8 (30 μM) alone (control) or with Scaff10-8 and forskolin. Forskolin (10 μM) was added for the final 30 min of Scaff10-8 incubation. AQP2 (green) was detected with specific primary and Cy3-coupled secondary antibodies, F-actin (red) with Alexa Fluor 647-Phalloidin and nuclei with DAPI (blue). Signals were visualized using a laser scanning microscope. Representative images are shown. n = 3. The magnified views were derived from the indicated boxes. (B) The signal intensities arising from intracellular and plasma membrane AQP2 were recorded, related to nuclear signal intensities, and the ratios of plasma membrane to intracellular fluorescence signal intensities were calculated (n = 30 cells per condition). Ratios > 1 indicate a predominant localization of AQP2 at the plasma membrane. Statistically significant differences were calculated using one-way ANOVA with posthoc Bonferroni. Mean ± SEM; *, p ≤ 0.05; *** p ≤ 0.001.

[2] = system: AQP2 insertion into the plasma membrane of IMCD cells; test: Biotinylation of cell surface proteins; type: cell-based, rat; details: Scaff10-8 30 μM, 1 or 24 h, forskolin 30 μM, 30 min
Experimental: The assay was performed according to Bogum et al.. IMCD cells were treated with Scaff10-8 at a concentration of 30 μM for 1 or 24 h (0.3% DMSO final concentration). DMSO (0.3%) was used as a control for the 24 h of incubation. Cells were stimulated with forskolin (30 min, 30 μM). Cells were washed twice with ice-cold PBS and incubated with biotinylation buffer (500 μg Biotin per well; 10 mM triethanolamine; 150 mM NaCl; 1 mM MgCl2; 0.1 mM CaCl2; pH 8.0) for 60 min at 4°C. After two washing steps with biotinylation buffer, cells were incubated for 10 min with quenching buffer (50 mM NH4Cl in PBS) at 4°C. Lysates were prepared using biotinylation lysis buffer 1 (SLB; 0.5% Triton X-100; 0.2% BSA; Complete mini EDTA-free). Lysates were sonicated and incubated for 20 min at 37°C. Cell debris was removed by centrifugation (30 min, 15,000x g, 4°C). Lysates were incubated with 80 μl streptavidin agarose beads at 4°C overnight. Beads were washed three times with biotinylation lysis buffer 1 and 2 (SLB; 0.5% Triton X-100; Complete mini EDTA-free). Proteins were eluted using sample buffer and analyzed by Western blotting.
(A) IMCD cells were treated with either compound (30 μM) or DMSO for 1 or 24 h. Membrane proteins were biotinylated followed by precipitation with streptavidin agarose beads. […] (B) Signals from A were quantified by densitometric analysis. […]

[3] = system: hypercholesterolemic patients; parameters: method as in PMID 26575415, PMID 21858457; details: cited from earlier work
untagged RhoA = molecular target: T1, untagged RhoA (human, UniProt P61586 1-193); test: MST; GFP-AKAP-Lbc/DHPH constant at 150 nM, unlabeled RhoA titrated 36.01 nM-590 uM in MST buffer; 1 h at room temperature; Monolith NT.115; details: both partners purified
T1 construct: RhoA; also called unlabeled RhoA; source: recombinant, purified
T1 sequence (P61586 whole entry): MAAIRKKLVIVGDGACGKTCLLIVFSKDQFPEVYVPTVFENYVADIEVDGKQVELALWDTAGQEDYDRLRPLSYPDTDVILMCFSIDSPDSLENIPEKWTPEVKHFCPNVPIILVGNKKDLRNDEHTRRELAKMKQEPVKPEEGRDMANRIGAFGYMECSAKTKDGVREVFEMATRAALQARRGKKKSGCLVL

C=C[C@@]1(C)CC(=O)[C@]2(O)[C@@]3(C)[C@@H](O)CCC(C)(C)[C@@H]3[C@H](O)[C@H](OC(C)=O)[C@@]2(C)O1 [forskolin, reference compound]
F-actin ([1]; Scaff10-8 30 μM alone, forskolin alone): caused depolymerization
localization of AQP2 ([1]; Scaff10-8 30 μM, 1 h, no forskolin, forskolin 10 μM, 30 min): induced its redistribution to the plasma membrane
insertion of AQP2 into the plasma membrane [2]: induced the membrane insertion of AQP2

CCC(C)(C)C(=O)O[C@H]1C[C@@H](C)C=C2C=C[C@H](C)[C@H](CC[C@@H]3C[C@@H](O)CC(=O)O3)[C@H]21 [simvastatin]
diuresis and urine osmolality [3]: reduced diuresis and increased urine osmolality

B1: GFP-AKAP-Lbc/DHPH (domain or fragment)
chain: EAESWSRIIDSKFLKQQKKDVVKRQEVIYELMQTEFHHVRTLKIMSGVYSQGMMADLLFEQQMVEKLFPCLDELISIHSQFFQRILERKKESLVDKSEKNFLIKRIGDVLVNQFSGENAERLKKTYGKFCGQHNQSVNYFKDLYAKDKRFQAFVKKKMSSSVVRRLGIPECILLVTQRITKYPVLFQRILQCTKDNEVEQEDLAQSLSLVKDVIGAVDSKVASYEKKVRLNEIYTKTDSKSIMRMKSGQMFAKEDLKRKKLVRDGSVFLKNAAGRLKEVQAVLLTDILVFLQEKDQKYIFASLDQKSTVISLKKLIVREVAHEEKGLFLISMGMTDPEMVEVHASSKEERNSWIQIIQDTINTL
modifications: GFP and His6 tags left out. Limits are codons 1972-2335, from bp 5,914-7,005 of CCDS32320.1 (human CDS); the nucleotide changes only removed rare codons. The range encloses the annotated DH …
Kd (untagged RhoA): 42 µM
